Patent US20240041042A1, “1-(PYRIDYL)-5-AZINYLPYRAZOLE DERIVATIVES, AND THEIR USE FOR CONTROL OF UNDESIRED PLANT GROWTH” (Bayer Aktiengesellschaft, priority 2020, published 2024)

Key:
Format in all cases: in vivo
[1] = tested on: Matricaria inodora (MATIN); experiment: Post-emergence herbicidal action against MATIN; conditions: dosage 320 g/ha
Outline: (§1)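 Values are percent visual activity (0% like control, 100% plants dead) after about 3 weeks in the greenhouse. Treatment: post-emergence spray at one-leaf stage, 600 l/ha spray volume, 0.5% additive, doses 320 g/ha or lower.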

[2] = tested on: Matricaria inodora (MATIN); experiment: Pre-emergence herbicidal action against MATIN
Outline: (§2)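 Application rates ran to 320 g/ha or lower, with several dosages tested on the same weeds. The compound, as wettable powder or emulsion concentrate, is sprayed pre-emergence onto soil over sown seeds; greenhouse growth follows, and effect is rated visually after roughly 3 weeks.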

[3] = tested on: Verconica persica (VERPE); experiment: Post-emergence herbicidal action against VERPE
Outline: as §1

[4] = tested on: Alopecurus myosuroides (ALOMY); experiment: Post-emergence herbicidal action against ALOMY; conditions: visual rating about 3 weeks after treatment vs untreated controls (100% = plants have died, 0% = like control plants)
Outline: as §1

Avena fatua (AVEFA) [5] = experiment: Pre-emergence herbicidal action against AVEFA; conditions: 320 g/ha, visual scoring after about 3 weeks vs untreated controls
Outline: as §2

Setaria viridis (SETVI) [6] = experiment: Post-emergence herbicidal action against SETVI
Outline: as §1

[7] = tested on: Amaranthus retroflexus (AMARE); experiment: Pre-emergence herbicidal action against AMARE; conditions: visual scoring after about 3 weeks vs untreated controls
Outline: as §2

[8] = tested on: Polygonum convolvulus (POLCO); experiment: Post-emergence herbicidal action against POLCO; conditions: dosage 320 g/ha
Outline: as §1

[9] = tested on: Echinochloa crus-galli (ECHCG); experiment: Post-emergence herbicidal action against ECHCG
Outline: as §1

Viola tricolor (VIOTR) [10] = experiment: Post-emergence herbicidal action against VIOTR
Outline: as §1

[11] = tested on: Pharbitis purpurea (PHBPU); experiment: Pre-emergence herbicidal action against PHBPU
Outline: as §2

[12] = tested on: Polygonum convolvulus (POLCO); experiment: Pre-emergence herbicidal action against POLCO
Outline: as §2

Setaria viridis (SETVI) [13] = experiment: Pre-emergence herbicidal action against SETVI
Outline: as §2

Avena fatua (AVEFA) [14] = experiment: Post-emergence herbicidal action against AVEFA; conditions: 320 g/ha, visual rating about 3 weeks after treatment
Outline: as §1

Lolium rigidum (LOLRI) [15] = experiment: Post-emergence herbicidal action against LOLRI
Outline: as §1

[16] = tested on: Alopecurus myosuroides (ALOMY); experiment: Pre-emergence herbicidal action against ALOMY; conditions: scored visually after about 3 weeks, 100% = plants have died
Outline: as §2

[17] = tested on: Abutilon theophrasti (ABUTH); experiment: Pre-emergence herbicidal action against ABUTH; conditions: 100% = plants have died
Outline: as §2

Viola tricolor (VIOTR) [18] = experiment: Pre-emergence herbicidal action against VIOTR
Outline: as §2

Lolium rigidum (LOLRI) [19] = experiment: Pre-emergence herbicidal action against LOLRI
Outline: as §2

[20] = tested on: Echinochloa crus-galli (ECHCG); experiment: Pre-emergence herbicidal action against ECHCG
Outline: as §2

[21] = tested on: Verconica persica (VERPE); experiment: Pre-emergence herbicidal action against VERPE
Outline: as §2

[22] = tested on: Amaranthus retroflexus (AMARE); experiment: Post-emergence herbicidal action against AMARE; conditions: 320 g/ha, visual rating about 3 weeks after treatment
Outline: as §1

[23] = tested on: Abutilon theophrasti (ABUTH); experiment: Post-emergence herbicidal action against ABUTH; conditions: visual rating about 3 weeks after treatment vs untreated controls (100% = plants have died, 0% = like control plants)
Outline: as §1

Oryza sativa (ORYSA) = conditions: crop plant compatibility, 80 g/ha, effect in comparison to untreated controls
Outline: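 Greenhouse crops in sandy loam sprayed post-emergence at the one-leaf stage, 2–3 weeks after sowing, with WP or EC formulations in water plus 0.5% additive at 600 l/ha. Damage rated visually about 3 weeks later versus untreated controls (0% = like control, 100% = dead); suffixes a–c denote different doses.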

[24] = Dosage column 320 g/ha (title prints 3200 g/ha), scored visually after about 3 weeks

SMILES: CCOC(=O)COc1nn(-c2ccccn2)c(-c2ccc(F)nc2)c1Br [Example I-86]
- Post-emergence action against MATIN in % [1]: 80%
- Pre-emergence action against MATIN in % ([2]; dosage 320 g/ha): 100%
- Post-emergence action against VERPE in % ([3]; 320 g/ha, VERPE): 80%
- Post-emergence action against ALOMY in % ([4]; 80 g/ha): 100%
- Post-emergence action against ALOMY in % ([4]; 320 g/ha): 100%
- Pre-emergence action against AVEFA in % (Avena fatua (AVEFA) [5]): 90%
- Post-emergence action against SETVI in % (Setaria viridis (SETVI) [6]; dosage 80 g/ha): 100%
- Post-emergence action against SETVI in % (Setaria viridis (SETVI) [6]; dosage 320 g/ha): 100%
- Pre-emergence action against AMARE in % ([7]; 80 g/ha): 100%
- Pre-emergence action against AMARE in % ([7]; 320 g/ha): 100%
- Post-emergence action against POLCO in % [8]: 90%
- Post-emergence action against ECHCG in % ([9]; dosage 80 g/ha): 100%
- Post-emergence action against ECHCG in % ([9]; dosage 320 g/ha): 100%
- Post-emergence action against VIOTR in % (Viola tricolor (VIOTR) [10]; 80 g/ha): 80%
- Post-emergence action against VIOTR in % (Viola tricolor (VIOTR) [10]; 320 g/ha): 90%
- Pre-emergence action against PHBPU in % ([11]; dosage 320 g/ha): 90%
- Pre-emergence action against POLCO in % ([12]; dosage 320 g/ha): 100%
- Pre-emergence action against SETVI in % (Setaria viridis (SETVI) [13]; dosage 80 g/ha): 100%
- Pre-emergence action against SETVI in % (Setaria viridis (SETVI) [13]; dosage 320 g/ha): 100%
- Post-emergence action against AVEFA in % (Avena fatua (AVEFA) [14]): 100%
- Post-emergence action against LOLRI in % (Lolium rigidum (LOLRI) [15]; dosage 80 g/ha): 100%
- Post-emergence action against LOLRI in % (Lolium rigidum (LOLRI) [15]; dosage 320 g/ha): 100%
- Pre-emergence action against ALOMY ([16]; 80 g/ha): 100%
- Pre-emergence action against ALOMY ([16]; 320 g/ha): 100%
- Pre-emergence action against ABUTH ([17]; 80 g/ha, scored visually after about 3 weeks vs untreated controls, 0% = like control plants): 80%
- Pre-emergence action against ABUTH [17, 24]: 100%
- Pre-emergence action against VIOTR in % (Viola tricolor (VIOTR) [18]; 320 g/ha, Viola tricolor): 100%
- Pre-emergence action against VIOTR in % (Viola tricolor (VIOTR) [18]; dosage 80 g/ha): 80%
- Pre-emergence action against LOLRI in % (Lolium rigidum (LOLRI) [19]; dosage 80 g/ha): 100%
- Pre-emergence action against LOLRI in % (Lolium rigidum (LOLRI) [19]; dosage 320 g/ha): 100%
- Pre-emergence action against ECHCG in % ([20]; dosage 80 g/ha): 100%
- Pre-emergence action against ECHCG in % ([20]; dosage 320 g/ha): 100%
- Pre-emergence action against VERPE in % ([21]; dosage 320 g/ha): 90%
- Post-emergence action against AMARE in % [22]: 90%
- Post-emergence action against ABUTH in % ([23]; 80 g/ha): 90%
- Post-emergence action against ABUTH in % ([23]; 320 g/ha): 90%

SMILES: COC(=O)CNC(=O)[C@@H](C)Oc1nn(-c2ccccn2)c(-c2cncc(F)c2)c1Cl [Example I-185]
- Post-emergence action against MATIN in % [1]: 80%
- Pre-emergence action against MATIN in % ([2]; dosage 80 g/ha): 80%
- Pre-emergence action against MATIN in % ([2]; dosage 320 g/ha): 90%
- Post-emergence action against VERPE in % ([3]; 320 g/ha, VERPE): 80%
- Post-emergence action against VERPE in % ([3]; dosage 80 g/ha): 80%
- Post-emergence action against ALOMY in % ([4]; 320 g/ha): 80%
- Pre-emergence action against AVEFA in % (Avena fatua (AVEFA) [5]): 90%
- Post-emergence action against SETVI in % (Setaria viridis (SETVI) [6]; dosage 320 g/ha): 80%
- Pre-emergence action against AMARE in % ([7]; 80 g/ha): 100%
- Pre-emergence action against AMARE in % ([7]; 320 g/ha): 100%
- Post-emergence action against POLCO in % [8]: 80%
- Post-emergence action against ECHCG in % ([9]; dosage 80 g/ha): 80%
- Post-emergence action against ECHCG in % ([9]; dosage 320 g/ha): 90%
- Post-emergence action against VIOTR in % (Viola tricolor (VIOTR) [10]; 80 g/ha): 80%
- Post-emergence action against VIOTR in % (Viola tricolor (VIOTR) [10]; 320 g/ha): 80%
- Pre-emergence action against PHBPU in % ([11]; dosage 80 g/ha): 80%
- Pre-emergence action against PHBPU in % ([11]; dosage 320 g/ha): 90%
- Pre-emergence action against POLCO in % ([12]; dosage 80 g/ha): 80%
- Pre-emergence action against POLCO in % ([12]; dosage 320 g/ha): 90%
- Pre-emergence action against SETVI in % (Setaria viridis (SETVI) [13]; dosage 80 g/ha): 80%
- Pre-emergence action against SETVI in % (Setaria viridis (SETVI) [13]; dosage 320 g/ha): 100%
- Post-emergence action against AVEFA in % (Avena fatua (AVEFA) [14]): 80%
- Post-emergence action against LOLRI in % (Lolium rigidum (LOLRI) [15]; dosage 80 g/ha): 80%
- Post-emergence action against LOLRI in % (Lolium rigidum (LOLRI) [15]; dosage 320 g/ha): 80%
- Pre-emergence action against ALOMY ([16]; 80 g/ha): 80%
- Pre-emergence action against ALOMY ([16]; 320 g/ha): 90%
- Pre-emergence action against ABUTH [17, 24]: 80%
- Pre-emergence action against VIOTR in % (Viola tricolor (VIOTR) [18]; 320 g/ha, Viola tricolor): 100%
- Pre-emergence action against VIOTR in % (Viola tricolor (VIOTR) [18]; dosage 80 g/ha): 100%
- Pre-emergence action against LOLRI in % (Lolium rigidum (LOLRI) [19]; dosage 80 g/ha): 100%
- Pre-emergence action against LOLRI in % (Lolium rigidum (LOLRI) [19]; dosage 320 g/ha): 100%
- Pre-emergence action against ECHCG in % ([20]; dosage 80 g/ha): 80%
- Pre-emergence action against ECHCG in % ([20]; dosage 320 g/ha): 90%
- Pre-emergence action against VERPE in % ([21]; dosage 80 g/ha): 80%
- Pre-emergence action against VERPE in % ([21]; dosage 320 g/ha): 90%
- Post-emergence action against AMARE in % [22]: 80%
- Post-emergence action against ABUTH in % ([23]; 80 g/ha): 80%
- Post-emergence action against ABUTH in % ([23]; 320 g/ha): 80%
- Post-emergence action against ORYSA in % (Oryza sativa (ORYSA)): 20%
